# Laboratory results: paper PMC8268740, “Evaluation of Firefly and Renilla Luciferase Inhibition in Reporter-Gene Assays: A Case of Isoflavonoids” (International Journal of Molecular Sciences, 2021)
# pIC50: −log10 of the molar value. Values joined by “and” are separate entries in the source; they are usually repeats but may differ in a detail not shown here. Equal values may be shown once. “Also recorded” adds a separate entry of the source. Read-outs that look alike come from different tables or passages of the source.
# Columns and labels:
# [1] = biological target: T1, firefly luciferase (FLuc) (Photinus pyralis, UniProt P08659); test: Cell-lysate (AR-EcoScreen) in vitro firefly luciferase inhibition assay; type: biochemical; conditions: for pIC50 / FLuc inhibition (result in words): AR-EcoScreen cell lysate; for inhibition at 100 µM / inhibition at 10 µM / inhibition at 1 µM: read-out: inhibition of FLuc; for FLuc inhibition (result in words): screened at 1, 10, 100 µM
# T1 construct: host or cells: AR-EcoScreen (Chinese hamster ovary derived), lysate after dihydrotestosterone induction
# Description: (§1) Preparation of cell lysates for use in the luciferase inhibition assays was through seeding of 4–7 ×10^6 cells into a 150 cm^2 growth flask (an equivalent surface density to that indicated in OECD TG 458 [10]) for 24 h at 37 °C under 5% CO2. Upon incubation, dihydrotestosterone (Sigma-Aldrich, St. Louis, MO, USA) diluted in DMSO was added at 10 nM final concentration. This was followed by another 24-h incubation, removal of medium, and addition of 9.4 mL reporter lysis buffer (Promega, Madison, WI, USA). The growth flask was then stored at −80 °C until use.
# The cell lysate was thawed at room temperature. Stock solutions of the isoflavonoids and positive controls were dissolved in DMSO and 10-fold serially diluted in the cell lysate to the final concentration with 1% DMSO. Twenty microliters of each isoflavonoid in the cell lysate were transferred to 96-well plates in triplicate and incubated for 30 min at room temperature. Then, 30 µL Luciferase Assay Reagent II (contained in the Dual-Luciferase Reporter Assay System; Promega, Madison, WI, USA) was added to each well, and the FLuc luminescence was measured using a microplate reader (Synergy 4 hybrid; BioTek, Winooski, VT, USA). The addition of 30 µL of Stop & Glo Reagent (contained in the Dual-Luciferase Reporter Assay System) followed, and the RLuc luminescence was recorded using the microplate reader (Synergy 4 hybrid; BioTek, Winooski, VT, USA).
# The data from the in vitro luciferase inhibition assays in the AR-EcoScreen cell lysate were processed by first subtracting the background value (i.e., reporter lysis buffer alone) and then normalization to the vehicle control (1% DMSO), and are expressed as means ± standard deviation of three independent repeats carried out as technical triplicates. […] Statistical significance as compared to the vehicle control, considered: *, p ≤ 0.05; **, p ≤ 0.01; and ****, p ≤ 0.0001, using one-way ANOVA, followed by post-hoc Dunnett’s tests.
# isolated FLuc = conditions: cited from earlier work
# [2] = biological target: T2, Renilla luciferase (RLuc) (Renilla reniformis, UniProt P27652); test: Cell-lysate (AR-EcoScreen) in vitro Renilla luciferase inhibition assay; type: biochemical
# T2 construct: host or cells: AR-EcoScreen (Chinese hamster ovary derived), lysate
# T2 sequence (P27652 1-311): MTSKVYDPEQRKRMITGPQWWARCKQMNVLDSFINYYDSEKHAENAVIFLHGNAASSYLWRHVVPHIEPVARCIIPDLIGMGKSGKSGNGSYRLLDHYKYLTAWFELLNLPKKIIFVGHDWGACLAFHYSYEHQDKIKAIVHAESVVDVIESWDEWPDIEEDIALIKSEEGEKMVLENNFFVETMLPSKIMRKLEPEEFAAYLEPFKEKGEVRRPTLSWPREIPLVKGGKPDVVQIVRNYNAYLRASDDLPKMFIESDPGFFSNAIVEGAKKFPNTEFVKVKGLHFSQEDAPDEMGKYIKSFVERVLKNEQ
# Description: as §1
# The cell lysate was thawed at room temperature. Stock solutions of the isoflavonoids and positive controls were dissolved in DMSO and 10-fold serially diluted in the cell lysate to the final concentration with 1% DMSO. […] Then, 30 µL Luciferase Assay Reagent II (contained in the Dual-Luciferase Reporter Assay System; Promega, Madison, WI, USA) was added to each well, and the FLuc luminescence was measured using a microplate reader (Synergy 4 hybrid; BioTek, Winooski, VT, USA). The addition of 30 µL of Stop & Glo Reagent (contained in the Dual-Luciferase Reporter Assay System) followed, and the RLuc luminescence was recorded using the microplate reader (Synergy 4 hybrid; BioTek, Winooski, VT, USA). […]
# RLuc = conditions: read-out: IC50 RLuc inhibition; in the presence of 10 µM coelenterazine; cited from earlier work
# [3] = IC50 firefly luciferase inhibition
# [4] = read-out: IC50 firefly luciferase inhibition
# T1 sequence (P08659 whole entry): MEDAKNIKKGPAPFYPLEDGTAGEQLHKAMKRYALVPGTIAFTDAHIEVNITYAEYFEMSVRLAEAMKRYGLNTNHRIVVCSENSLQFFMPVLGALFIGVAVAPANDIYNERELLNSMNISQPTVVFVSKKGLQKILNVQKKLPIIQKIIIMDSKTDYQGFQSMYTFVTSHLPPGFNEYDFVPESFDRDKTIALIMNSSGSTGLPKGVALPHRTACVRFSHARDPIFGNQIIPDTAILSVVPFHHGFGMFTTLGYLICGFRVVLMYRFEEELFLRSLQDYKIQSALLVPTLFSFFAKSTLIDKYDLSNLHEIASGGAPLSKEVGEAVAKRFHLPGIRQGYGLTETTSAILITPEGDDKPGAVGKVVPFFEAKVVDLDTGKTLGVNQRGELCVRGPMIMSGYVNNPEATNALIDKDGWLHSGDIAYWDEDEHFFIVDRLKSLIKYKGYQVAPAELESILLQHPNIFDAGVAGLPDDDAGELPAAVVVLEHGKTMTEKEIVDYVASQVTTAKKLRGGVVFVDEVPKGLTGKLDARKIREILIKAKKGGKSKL
smiles,measurement,setting,value
"O=c1c(-c2ccc(O)cc2)coc2cc(O)cc(O)c12 [Genistein, genistein]",pIC50,[1]; [3],4.43
same,inhibition at 100 µM,[1],71.2%
COc1cc2c(=O)c(-c3ccc(O)cc3)coc2cc1O [Glycitein],pIC50,[1]; [3],4.58
same,inhibition at 10 µM,[1],30.1%
"Oc1ccc(/C=C/c2cc(O)cc(O)c2)cc1 [Resveratrol, resveratrol]",pIC50,isolated FLuc,5.70
O=c1c(-c2ccc(O)cc2)coc2cc(O)ccc12 [Daidzein],pIC50,[1]; [3],4.29
same,inhibition at 100 µM,[1],60.9%
"COc1ccc(-c2coc3cc(O)cc(O)c3c2=O)cc1 [Biochanin A, biochanin A]",pIC50,[1]; [4],6.20 and 6.19
same,inhibition at 1 µM,[1],62.4%
COc1ccc(-c2coc3cc(O)ccc3c2=O)cc1O [Calycosin],pIC50,[1]; [3],5.30
same,inhibition at 10 µM,[1],66.2%
"O=c1c(-c2ccc(O)cc2)coc2cc(O[C@@H]3O[C@H](CO)[C@@H](O)[C@H](O)[C@H]3O)cc(O)c12 [Genistin, genistin]",FLuc inhibition (result in words),[1],inactive
same,FLuc inhibition (result in words),[1]; listed as genistin,did not show inhibition of FLuc at all
"Oc1ccc([C@H]2COc3cc(O)ccc3C2)cc1 [S-Equol, S-equol]",FLuc inhibition (result in words),[1],inactive; also recorded: did not show inhibition of FLuc at all
"COc1cc2c(=O)c(-c3ccc(O)cc3)coc2cc1O[C@@H]1O[C@H](CO)[C@@H](O)[C@H](O)[C@H]1O [Glycitin, glycitin]",FLuc inhibition (result in words),[1],inactive; also recorded: did not show inhibition of FLuc at all
"COc1cc(O)c2c(=O)c(-c3ccc(O)cc3)coc2c1 [Prunetin, prunetin]",pIC50,[1]; [3],4.79
same,inhibition at 10 µM,[1],40.7%
"O=c1c(-c2ccc(O)cc2)coc2cc(O[C@@H]3O[C@H](CO)[C@@H](O)[C@H](O)[C@H]3O)ccc12 [Daidzin, daidzin]",FLuc inhibition (result in words),[1],inactive; also recorded: did not show inhibition of FLuc at all
O=S(=O)(NCCNC/C=C/c1ccc(Br)cc1)c1cccc2cnccc12 [H-89],pIC50,[2],3.47
same,pIC50,RLuc,5.00
"COc1ccc(-c2coc3cc(O)ccc3c2=O)cc1 [Formononetin, formononetin]",pIC50,[1]; [4],5.41
same,inhibition at 1 µM,[1],32.4%
